# Experimental data reported in patent US8404665B2, “In vivo use of glutathione S-transferase activated nitric oxide donors” (University of Utah Research Foundation, priority 2002, dated 2013).
# Entries after “also recorded” stand apart in the source; their conditions may differ. Where two headings read alike, the source gives them in different places.
# Assays:
# [1] = Hydrolysis of JS-K; format: physicochemical
# Procedure: For increased JS-K consumption rate at an initial concentration of 50 uM in 0.1 M phosphate (pH=7.4) at 37° C. as a function of increasing GSH concentration. The value of k1 obtained from the intercept appeared to be in statistical agreement with the rate constant for JS-K hydrolysis (1×10^−6 s^−1) measured separately in the absence of GSH. The small amount of the hydrolysis product (2,4-dinitrophenol) (data not shown) was apparently formed in the dimethyl sulfoxide stock solution, which in this case had been stored in the refrigerator with intermittent use during several weeks.
# [2] = test system: HL-60 cells; assay: Combination treatment: JS-K pretreatment then etoposide or daunorubicin, MTT; format: cell-based, human; settings: HL-60, JS-K pretreatment (0.25 μM)
# Procedure: Combination treatment. For combined drug treatment, HL-60 cell lines were pretreated with JS-K (0.25 μM) for 6 h in RPMI 1640 at 37° C. The JS-K-containing culture medium was then removed and replaced with fresh RPMI-1640. Three different concentrations of either etoposide (0.2, 0.3 and 0.4 μM) or daunorubicin (5, 10 and 50 nM) were added to the pretreated HL-60 cells. The cells were incubated at 37° C. for additional 48 hours. Solution of 3-[4,5-dimethylthiazol-2-yl]-2,5-[…] (MTT) tetrazolium salt (1 mg/ml) was added to the cells. The cells were incubated again for 3 h to allow for MTT metabolism to formazan by the succinate-tetrazolim reductase system active only in viable cells. A solution of 0.04 N HCl in isopropyl alcohol was added to stop the MTT assay. The supernatant was then aspirated and 150 μl of trituration was added to dissolve the water-insoluble blue formazan. The optical densities were read on a spectrophotometric plate reader at a single wavelength of 570 nm. The absorbance for control cells was defined as an MTT activity of 100%.
# [3] = test system: HL-60 cells; assay: Subcutaneous HL-60 tumor implants in NOD/SCID mice; format: in vivo
# Procedure: To study the in vivo antineoplastic potency of JS-K, NOD/SCID mice were injected in the flanks subcutaneously with HL-60 or PPC-1 cells (2.5×10^6 cells per flank). When subcutaneous tumors were palpable, treatment with JS-K or an equal volume of vehicle (20% dimethyl sulfoxide in PBS) was started using the indicated doses and route. Tumor size was measured daily or every other day using a Vernier caliper. Tumor volume was calculated using the formula: width×length×[(width+length)/2]×0.5236. Fifteen to 20 days after tumor cell implantation, animals were sacrificed by CO2 inhalation and tumors were collected for histochemical analysis.
# Histological Analysis of Tumors. After sacrifice, subcutaneous tumors were dissected out, fixed in 10% formaldehyde and imbedded in paraffin. Four-um sections were cut and stained with Hematoxylin and Eosin.
# To determine the in vivo therapeutic efficacy of JS-K, NOD/SCID mice were injected subcutaneously with 5×10^6 HL-60 cells in the flanks. When tumors were measurable (4 to 5 days after leukemia cell inoculation), the mice were divided into 2 groups that received either vehicle or JS-K at a dose of 4 μmol/kg administered intravenously 3 times per week. After seventeen days from the leukemia cell inoculation there appeared to be a significant difference in tumor volume between vehicle and JS-K treated animals: tumor volume was 9.51±1.22 and 4.15±1.06 cm^3 in vehicle and JS-K treated animals, respectively.
# [4] = test system: HL-60 cells; assay: HL-60 leukemia cell growth (Coulter counter or MTT assay); format: cell-based, human; settings: for cell growth, % of untreated control cells: HL-60, MTT, three days
# Procedure: Cell Lines and Culture Conditions. HL-60, DLD1, and U937 cells were obtained from ATCC (Rockville, Md.). Meth A cells were from Dr. Wolfram Samlowski (University of Utah, Salt Lake City, Utah). The PPC-1 cell line was provided by Dr. Graeme Bolger (University of Alabama, Birmingham, Ala.). For the cell growth and apoptosis experiments, cells were cultured at a density of 150,000 cells/ml in RPMI-1640 with 10% fetal bovine serum at 37° C. in a 5% CO2 humidified atmosphere. Agents were added at the indicated concentrations 24 h after culture initiation. At the indicated time intervals, cells were harvested and washed twice in phosphate buffered saline (PBS) prior to processing for analysis of growth, differentiation, and apoptosis.
# Cell Growth, Differentiation and Apoptosis Assays. The number of viable cells was determined using the MTT assay according to the manufacturer's protocol (Promega, Madison, Wis.) or using a Coulter counter. Briefly, a MTT assay is an analytical technique that uses the dye dimethylthiazolyl-diphenyltetrazolium (MTT) which turns from yellow to brownish-purple as it is reduced in the mitochondria of living cells. The assay is useful in calorimetric quantitation of cell viability and proliferation. In contrast, cell differentiation was evaluated using Wright and Non-Specific Esterase (NSE) staining of cells collected on microscope slides by cytospin as previously described (Magrinat, G. et al. (1992) Blood 80: 1880-1884). Apoptosis was assayed by flow cytometry and by determining DNA fragmentation using agarose gel electrophoresis as previously described (Shami, P. J. et al. (1998) Leukemia 12: 1461-1466). For the flow cytometry assay, we used the propidium iodide staining method of Nicoletti et al. (Nicoletti, I. et al. (1991) J. Immunol. Methods 139: 271-279).
# For the initial screen, HL60 cells were cultured in triplicate in RPMI1640/10% FBS under standard conditions. Compounds were added to the cultures at the following concentrations: 0, 0.1, 1, 10, and 100 micromolar (uM). Three days after addition of the compounds cell growth was determined either using a Coulter counter or using the MTT assay.
# The antiproliferative effects in the human AML (Acute Myeloid Leukemia) cell lines, HL-60 (myeloid leukemia) and U937 (monoblastic leukemia) cells were treated with JS-K for a period of 3 days, upon which cell growth was evaluated using a Coulter counter (CITY, STATE). JS-K was added to HL-60 cells at 0, 0.25, 0.5, 0.75, and 1.0 μM concentrations. […] Similar results were obtained in U937 cells under similar conditions.
# [5] = test system: bacterial, viral, fungal or parasitic infection; assay: Treatment of bacterial, viral, fungal or parasitic infection in an individual; format: in vivo; settings: therapeutically effective amount
# Procedure: An individual with a bacterial, viral, fungal or parasitic infection is administered a therapeutically effective amount of JS-K to treat such infection.
# [6] = 4 μmol/kg i.v. 3 times per week
structure (smiles),measurement,setting,value
"CCOC(=O)N1CCN(/[N+]([O-])=N/Oc2ccc([N+](=O)[O-])cc2[N+](=O)[O-])CC1 [JS-K, O^2-(2,4-dinitrophenyl) 1-[(4-ethoxycarbonyl)piperazin-1-yl]diazen-1-ium-1,2-diolate]",resistance to hydrolysis,"[1]; 0.1 M phosphate pH 7.4, 37° C.",resistant to simple hydrolysis
same,rate constant for JS-K hydrolysis,"[1]; measured separately in the absence of GSH, pH 7.4, 37° C.",1e-06 s⁻¹
same,hydrolysis,[1]; pH=12,much more facile
same,effect of JS-K pretreatment on daunorubicin and etoposide,[2],additive effect; also recorded: significantly enhanced efficacy of daunorubicin and etoposide
same,leukemia implant growth in vivo,[3]; [6],significant delay in leukemia implant growth in vivo
same,tumor histology (necrosis) at experiment termination,[3]; [6],extensive necrosis
same,tumor volume,"[3]; 4 μmol/kg i.v. 3 times per week, seventeen days from inoculation, vehicle 9.51±1.22",4.15±1.06 cm^3
same,cell necrosis in tumors (histologic analysis),[3]; controls ˜10%,more than 50%
same,reduction in tumor volume,"[3]; sixteen days after starting therapy, versus control",more than 50%
same,average tumor volume,"[3]; sixteen days after starting therapy, control 8.34±0.72, P=0.039",3.13±1.14 cm^3
same,IC50,"[4]; HL-60, 3 days, Coulter counter, mean of 3 studies, read-out: IC50, cell growth",220 nM
same,"cell growth, % of untreated control cells",[4]; 0.75 uM,28+/−0.79%
same,"cell growth, % of untreated control cells",[4]; 0.75 uM JS-K together with 50 uM C-VAD-FMK,79+/−2.4%
same,IC50,"[4]; HL-60, initial screen, at three days, read-out: 50% growth inhibitory concentration (IC50)",220 nM
same,JS-K-induced growth inhibition after NAC pretreatment,"[4]; HL-60, pretreatment 2-6 h with NAC",prevented the JS-K-induced growth inhibition
same,JS-K-induced growth inhibition after BSO pretreatment,"[4]; HL-60, pretreatment with BSO for 2-6 h",did not appear to prevent the JS-K-induced growth inhibition
same,JS-K-induced growth inhibition after BSO pretreatment,"[4]; HL-60, pretreatment with BSO for 24 h",appeared to enhance the effects
same,IC50,"[4]; HL-60 assay system, comparison with chemotherapeutic agents, read-out: IC50, growth inhibition",500 nM
same,effect on infection,[5],causes elimination of such infection
